Assays:
Format in all cases: functional
[1] = test system: NCI-H460; test: Cytotoxicity against human NCI-H460 cells assessed as cell growth at 10^-4 M after 24 hrs by SRB assay; details: NCI-H460, 24 h, read-out: Activity
[2] = Cytotoxicity against human RXF393 cells assessed as cell growth at 10^-8 M after 24 hrs by SRB assay; details: RXF 393, 24 h, read-out: Activity
[3] = test system: 786-0; test: Cytotoxicity against human 786-0 cells assessed as cell growth at 10^-6 M after 24 hrs by SRB assay; details: 786-0, 24 h, read-out: Activity
[4] = Cytotoxicity against human COLO205 cells assessed as cell growth at 10^-7 M after 24 hrs by SRB assay; details: COLO 205, 24 h, read-out: Activity
[5] = test system: SN12C; test: Cytotoxicity against human SN12C cells assessed as cell growth at 10^-4 M after 24 hrs by SRB assay; details: read-out: Activity
[6] = Cytotoxicity against human SNB19 cells assessed as cell growth at 10^-6 M after 24 hrs by SRB assay; details: SNB-19, 24 h, read-out: Activity
[7] = Cytotoxicity against human HOP92 cells assessed as cell growth at 10^-7 M after 24 hrs by SRB assay; details: HOP-92, 24 h, read-out: Activity
[8] = Cytotoxicity against human RPMI8226 cells after 24 hrs by SRB assay; details: RPMI-8226, 24 h
[9] = test system: SK-MEL-5; test: Cytotoxicity against human SK-MEL-5 cells assessed as cell growth at 10^-6 M after 24 hrs by SRB assay; details: SK-MEL-5, 24 h, read-out: Activity
[10] = Cytotoxicity against human HOP62 cells assessed as cell growth at 10^-6 M after 24 hrs by SRB assay; details: HOP-62, 24 h, read-out: Activity
[11] = test system: U-251; test: Cytotoxicity against human U251 cells after 24 hrs by SRB assay; details: U-251, 24 h
[12] = test system: NCI-H226; test: Cytotoxicity against human NCI-H226 cells assessed as cell growth at 10^-6 M after 24 hrs by SRB assay; details: NCI-H226, 24 h, read-out: Activity
[13] = Cytotoxicity against human SF539 cells assessed as cell growth at 10^-8 M after 24 hrs by SRB assay; details: SF-539, 24 h, read-out: Activity
[14] = test system: NCI-H522; test: Cytotoxicity against human NCI-H522 cells assessed as cell growth at 10^-7 M after 24 hrs by SRB assay; details: NCI-H522, 24 h, read-out: Activity
[15] = Cytotoxicity against human SF539 cells assessed as cell growth at 10^-6 M after 24 hrs by SRB assay; details: SF-539, 24 h, read-out: Activity
[16] = Cytotoxicity against human UACC257 cells assessed as cell growth at 10^-5 M after 24 hrs by SRB assay; details: UACC-257, 24 h, read-out: Activity
[17] = test system: U-251; test: Cytotoxicity against human U251 cells assessed as cell growth at 10^-6 M after 24 hrs by SRB assay; details: U-251, 24 h, read-out: Activity
[18] = test system: HT-29; test: Cytotoxicity against human HT-29 cells assessed as cell growth at 10^-7 M after 24 hrs by SRB assay; details: HT-29, 24 h, read-out: Activity
[19] = test system: NCI-H460; test: Cytotoxicity against human NCI-H460 cells assessed as cell growth at 10^-8 M after 24 hrs by SRB assay; details: NCI-H460, 24 h, read-out: Activity
[20] = test system: NCI-H460; test: Cytotoxicity against human NCI-H460 cells assessed as cell growth at 10^-7 M after 24 hrs by SRB assay; details: NCI-H460, 24 h, read-out: Activity
[21] = Cytotoxicity against human PC3 cells assessed as cell growth at 10^-8 M after 24 hrs by SRB assay; details: PC-3, 24 h, read-out: Activity
[22] = Cytotoxicity against human OVCAR4 cells assessed as cell growth at 10^-7 M after 24 hrs by SRB assay; details: OVCAR-4, 24 h, read-out: Activity
[23] = Cytotoxicity against human OVCAR8 cells assessed as cell growth at 10^-5 M after 24 hrs by SRB assay; details: OVCAR-8, 24 h, read-out: Activity
[24] = test system: NCI-H23; test: Cytotoxicity against human NCI-H23 cells assessed as cell growth at 10^-8 M after 24 hrs by SRB assay; details: NCI-H23, 24 h, read-out: Activity
[25] = test system: SN12C; test: Cytotoxicity against human SN12C cells assessed as cell growth at 10^-5 M after 24 hrs by SRB assay; details: read-out: Activity
[26] = Cytotoxicity against human Caki1 cells assessed as cell growth at 10^-8 M after 24 hrs by SRB assay; details: CAKI-1, 24 h, read-out: Activity
[27] = Cytotoxicity against human DU145 cells assessed as cell growth at 10^-5 M after 24 hrs by SRB assay; details: DU-145, 24 h, read-out: Activity
[28] = Cytotoxicity against human UACC62 cells assessed as cell growth at 10^-6 M after 24 hrs by SRB assay; details: UACC-62, 24 h, read-out: Activity
[29] = Cytotoxicity against human UACC62 cells assessed as cell growth at 10^-7 M after 24 hrs by SRB assay; details: UACC-62, 24 h, read-out: Activity
[30] = test system: CCRF-CEM; test: Cytotoxicity against human CCRF-CEM cells after 24 hrs by SRB assay
[31] = test system: A498; test: Cytotoxicity against human A498 cells assessed as cell growth at 10^-4 M after 24 hrs by SRB assay; details: A498, 24 h, read-out: Activity
[32] = test system: EKVX; test: Cytotoxicity against human EKVX cells assessed as cell growth at 10^-7 M after 24 hrs by SRB assay; details: read-out: Activity
[33] = Cytotoxicity against human SF295 cells assessed as cell growth at 10^-6 M after 24 hrs by SRB assay; details: SF-295, 24 h, read-out: Activity
[34] = Cytotoxicity against human LOXIMVI cells assessed as cell growth at 10^-4 M after 24 hrs by SRB assay; details: LOX IMVI, read-out: Activity
[35] = Cytotoxicity against human SF295 cells assessed as cell growth at 10^-7 M after 24 hrs by SRB assay; details: SF-295, 24 h, read-out: Activity
[36] = test system: U-251; test: Cytotoxicity against human U251 cells assessed as cell growth at 10^-5 M after 24 hrs by SRB assay; details: U-251, 24 h, read-out: Activity
[37] = test system: SK-MEL-2; test: Cytotoxicity against human SK-MEL-2 cells assessed as growth inhibition at 10 uM after 24 hrs by SRB assay; details: SK-MEL-2, 24 h, read-out: GI
[38] = read-out: LC50 (the source's name)
[39] = read-out: pLC50 (the source's name) (converted)

## O=C(Nc1cc(-c2cccnc2)nc(NCCCN2CCOCC2)n1)c1cc(Br)cc(C(F)(F)F)c1
[1]
  growth at 100 µM: -75%
[2]
  growth at 0.01 µM: 99%
[3]
  growth at 1 µM: 81%
[4]
  growth at 0.1 µM: 93%
[5]
  growth at 100 µM: -85%
[6]
  growth at 1 µM: 105%
[7]
  growth at 0.1 µM: 80%
[8]; read-out: GI50
  GI50: 3.15 µM
[8]; [38]
  CC50: > 100 µM
[8]; read-out: TGI
  TGI: 9.69 µM
[8]; read-out: pGI50 (converted)
  GI50: 3.16 µM
[8]; [39]
  CC50: > 100 µM
[8]; read-out: pTGI (converted)
  TGI: 9.77 µM
[9]
  growth at 1 µM: 91%
[10]
  growth at 1 µM: 88%
[11]; read-out: GI50
  GI50: 2.05 µM
[11]; [38]
  CC50: 9.04 µM
[11]; read-out: TGI
  TGI: 4.3 µM
[11]; read-out: pGI50 (converted)
  GI50: 2.04 µM
[11]; [39]
  CC50: 9.12 µM
[11]; read-out: pTGI (converted)
  TGI: 4.27 µM
[12]
  growth at 1 µM: 84%
[13]
  growth at 0.01 µM: 95%
[14]
  growth at 0.1 µM: 92%
[15]
  growth at 1 µM: 85%
[16]
  growth at 10 µM: -83%
[17]
  growth at 1 µM: 98%
[18]
  growth at 0.1 µM: 102%
[19]
  growth at 0.01 µM: 99%
[20]
  growth at 0.1 µM: 100%
[21]
  growth at 0.01 µM: 93%
[22]
  growth at 0.1 µM: 90%
[23]
  growth at 10 µM: -7%
[24]
  growth at 0.01 µM: 98%
[25]
  growth at 10 µM: 44%
[26]
  growth at 0.01 µM: 99%
[27]
  growth at 10 µM: 39%
[28]
  growth at 1 µM: 90%
[29]
  growth at 0.1 µM: 90%
[30]; read-out: GI50
  GI50: 3.54 µM
[30]; [38]
  CC50: 93.4 µM
[30]; read-out: TGI
  TGI: 12.9 µM
[30]; read-out: pGI50 (converted)
  GI50: 3.55 µM
[30]; [39]
  CC50: 93.3 µM
[30]; read-out: pTGI (converted)
  TGI: 12.9 µM
[31]
  growth at 100 µM: -91%
[32]
  growth at 0.1 µM: 80%
[33]
  growth at 1 µM: 97%
[34]
  growth at 100 µM: -93%
[35]
  growth at 0.1 µM: 91%
[36]
  growth at 10 µM: -57%

## COCCCNc1nc(NC(=O)c2cc(OC)cc(OC)c2)cc(-c2cccnc2)n1
[37]
  inhibition of growth at 10 µM: 21.2%
